Laboratory results from patent US20230124361A1, “SMALL MOLECULE STING ANTAGONISTS” (CURADEV PHARMA PVT. LTD., priority 2020, published 2023).

The compounds below were run against T1, STING (Homo sapiens, UniProt Q86WV6, G230A/H232R/R293Q/R71H) (assay: Reporter gene expression assay in THP1-Dual cells (IRF pathway Lucia luciferase, 2',3'-cGAMP stimulation)). Settings: 10 min preincubation, 5 μM 2',3'-cGAMP, 20 hr, IRF reporter QUANTI-Luc, read-out: THP-1 (HAQ) Activity.
T1 construct: host or cells: THP1-Dual cells (human THP-1 monocyte line with Lucia/SEAP reporters)
T1 sequence (Q86WV6 whole entry R71H/G230A/H232R/R293Q): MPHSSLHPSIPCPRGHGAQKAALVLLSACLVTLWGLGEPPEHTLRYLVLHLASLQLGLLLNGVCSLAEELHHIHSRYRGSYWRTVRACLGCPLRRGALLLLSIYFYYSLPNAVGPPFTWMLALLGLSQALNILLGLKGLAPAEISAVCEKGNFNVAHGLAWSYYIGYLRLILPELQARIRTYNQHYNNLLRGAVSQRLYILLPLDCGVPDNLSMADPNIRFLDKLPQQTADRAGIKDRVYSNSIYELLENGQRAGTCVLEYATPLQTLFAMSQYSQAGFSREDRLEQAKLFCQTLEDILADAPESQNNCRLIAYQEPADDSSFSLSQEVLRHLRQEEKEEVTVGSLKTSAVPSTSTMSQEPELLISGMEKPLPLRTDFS
Format: cell-based
Experimental: Reporter Gene Expression Assay in THP-1 Cells
THP1-Dual™ cells (Invivogen) were derived from the human THP-1 monocyte cell line by stable integration of two inducible reporter constructs. As a result, THP1-Dual™ cells allow the simultaneous study of the IRF pathway, by assessing the activity of a secreted luciferase (Lucia) and the NF-κB pathway, by monitoring the activity of secreted SEAP. 5×10^4 THP1-Dual™ cells were seeded in 384-well plates in growth medium and preincubated with novel compounds for 10 minutes followed by stimulation with 5 μM 2′,3′-cGAMP. After 20 hr of stimulation the supernatant was removed and the IRF pathway reporter protein was readily measured in the cell culture supernatant using QUANTI-Luc™ (Invivogen), a luciferase detection reagent on a Spectramax i3X luminometer.
In the tables below, IC50 value ranges for exemplary compounds are given. The IC50 ranges are indicated as “A” for values less than or equal to 1 μM, “B” for values greater than 1 μM and less than or equal to 10 μM, and “C” for values greater than 10 μM.

IC50 [µM]	Structure (SMILES)
1 to 10	O=C(Nc1ccc2c(c1)OCC(=O)N2Cc1ccccc1)NC1CCC(c2ccccc2)CC1 (mixture of isomers) [Example 137, 1-(4-benzyl-3-oxo-3,4-dihydro-2H-benzo[b][1, 4]oxazin-7-yl)-3-(4-phenyl-cyclohexyl)urea]
1 to 10	O=C(Nc1ccc2c(c1)N(Cc1ccccc1)C(=O)CS2)Nc1ccc2cc[nH]c2c1 [Example 1, 1-(4-Benzyl-3-oxo-3,4-dihydro-2H-benzo[b][1,4]thiazin-6-yl)-3-(1H-indol-6-yl)urea]
1 to 10	O=C(Nc1ccccc1)Nc1ccc2c(c1)N(Cc1ccccc1)C(=O)CS2 [Example 2, 1-(4-benzyl-3-oxo-3,4-dihydro-2H-benzo[b][1, 4]thiazin-6-yl)-3-phenylurea]
1 to 10	O=C(Nc1ccc(F)cc1)Nc1ccc2c(c1)N(Cc1ccccc1)C(=O)CS2 [Example 3, 1-(4-benzyl-3-oxo-3,4-dihydro-2H-benzo[b][i, 4]thiazin-6-yl)-3-(4-fluorophenyl) urea]
1 to 10	O=C(Nc1cccnc1)Nc1ccc2c(c1)N(Cc1ccccc1)C(=O)CS2 [Example 4, 1-(4-benzyl-3-oxo-3,4-dihydro-2H-benzo[b][1, 4]thiazin-6-yl)-3-(pyridin-3-yl)urea]
1 to 10	O=C(Nc1ccncc1)Nc1ccc2c(c1)N(Cc1ccccc1)C(=O)CS2 [Example 6, 1-(4-benzyl-3-oxo-3,4-dihydro-2H-benzo[b][1, 4]thiazin-6-yl)-3-(pyridin-4-yl)urea]
1 to 10	O=C(Nc1ccc2c(c1)N(Cc1ccccc1)C(=O)CS2)Nc1ccc2[nH]ccc2c1 [Example 9, 1-(4-benzyl-3-oxo-3,4-dihydro-2H-benzo[b][1, 4]thiazin-6-yl)-3-(1H-indol-5-yl)urea]
> 10	N#Cc1ccc(CNC(=O)Nc2ccc3c(c2)N(Cc2ccccc2)C(=O)CS3)cc1 [Example 12, 1-(4-benzyl-3-oxo-3,4-dihydro-2H-benzo[b][1, 4]thiazin-6-yl)-3-(4-cyanobenzyl) urea]
> 10	O=C(Nc1ccc(F)cc1)Nc1ccc2c(c1)N(Cc1cccnc1)C(=O)CS2 [Example 16, l-(4-fluorophenyl)-3-(3-oxo-4-(pyridin-3-ylmethyl)-3,4-dihydro-2H-benzo[b] [1,4]thiazin-6-yl)urea]
> 10	O=C(Nc1ccc(F)cc1)Nc1ccc2c(c1)N(Cc1ccncc1)C(=O)CS2 [Example 17, l-(4-fluorophenyl)-3-(3-oxo-4-(pyridin-4-ylmethyl)-3,4-dihydro-2H-benzo[b][1, 4]thiazin-6-yl)urea]
≤ 1	O=C(Nc1ccc2c(c1)N(Cc1ccccc1)C(=O)CS2)Nc1c[nH]c2ccccc12 [Example 18, 1-(4-benzyl-3-oxo-3,4-dihydro-2H-benzo[b][1, 4]thiazin-6-yl)-3-(1H-indol-3-yl)urea]
1 to 10	O=C(Nc1ccc2c(c1)N(Cc1ccccc1)C(=O)CS2)Nc1cccc2cc[nH]c12 [Example 19, 1-(4-benzyl-3-oxo-3,4-dihydro-2H-benzo[b][1, 4]thiazin-6-yl)-3-(1H-indol-7-yl)urea]
1 to 10	O=C(Nc1ccc2c(c1)OCCO2)Nc1ccc2c(c1)N(Cc1ccccc1)C(=O)CS2 [Example 23, 1-(4-benzyl-3-oxo-3,4-dihydro-2H-benzo[b] [1,4]thiazin-6-yl)-3-(2,3-dihydrobenzo [b][1,4]dioxin-6-yl)urea]
1 to 10	O=C(Nc1ccc2c(c1)N(Cc1noc3ccccc13)C(=O)CS2)Nc1ccc2cc[nH]c2c1 [Example 24, 1-(4-(benzo[d]isoxazol-3-ylmethyl)-3-oxo-3,4-dihydro-2H-benzo [b][1,4]thiazin-6-yl)-3-(1H-indol-6-yl)urea]
1 to 10	Nc1cccc(NC(=O)Nc2ccc3c(c2)N(Cc2ccccc2)C(=O)CS3)c1 [Example 25, 1-(3-aminophenyl)-3-(4-benzyl-3-oxo-3,4-dihydro-2H-benzo [b][1,4]thiazin-6-yl)urea]
1 to 10	O=C(Nc1ccc(F)cc1)Nc1ccc2c(c1)N(Cc1cn3ccccc3n1)C(=O)CS2 [Example 26, 1-(4-fluorophenyl)-3-(4-(imidazo [1,2-a]pyridin-2-ylmethyl)-3-oxo-3,4-dihydro-2H-benzo[b][1, 4]thiazin-6-yl)urea]
> 10	Cn1ccc2ccc(NC(=O)Nc3ccc4c(c3)N(Cc3ccccc3)C(=O)CS4)cc21 [Example 27, 1-(4-benzyl-3-oxo-3,4-dihydro-2H-benzo[b] [1,4]thiazin-6-yl)-3-(1-methyl-1H-indol-6-yl)urea]
1 to 10	O=C(Nc1ccc2c(c1)N(Cc1ccccc1)C(=O)CS2)Nc1ccc2cn[nH]c2c1 [Example 28, 1-(4-benzyl-3-oxo-3,4-dihydro-2H-benzo[b][1, 4]thiazin-6-yl)-3-(1H-indazol-6-yl)urea]
1 to 10	O=C1CCc2ccc(NC(=O)Nc3ccc4c(c3)N(Cc3ccccc3)C(=O)CS4)cc2N1 [Example 29, 1-(4-benzyl-3-oxo-3,4-dihydro-2H-benzo[b][1, 4]thiazin-6-yl)-3-(2-oxo-1,2,3,4-tetrahydro-quinolin-7-yl)urea]

IC50 [µM]	Structure (SMILES)
1 to 10	O=C(Nc1ccc2c(c1)N(Cc1ccccc1)C(=O)CS2)Nc1ccc2nc[nH]c2c1 [Example 30, 1-(1H-benzo[d]imidazol-6-yl)-3-(4-benzyl-3-oxo-3,4-dihydro-2H-benzo[b][1, 4]thiazin-6-yl)urea]
1 to 10	CN(C(=O)Nc1ccc2cc[nH]c2c1)c1ccc2c(c1)N(Cc1ccccc1)C(=O)CS2 [Example 31, 1-(4-benzyl-3-oxo-3,4-dihydro-2H-benzo[b][1, 4]thiazin-6-yl)-3-(1H-indol-6-yl)-1-methylurea]
1 to 10	CC1Sc2ccc(NC(=O)Nc3ccccc3)cc2N(Cc2ccccc2)C1=O (centres unmarked) [Example 32, 1-(4-benzyl-2-methyl-3-oxo-3,4-dihydro-2H-benzo[b][1, 4]thiazin-6-yl)-3-phenylurea]
1 to 10	NC(=O)c1ccc(NC(=O)Nc2ccc3c(c2)N(Cc2ccccc2)C(=O)CS3)cc1 [Example 33, 4-(3-(4-benzyl-3-oxo-3,4-dihydro-2H-benzo[b][1, 4]thiazin-6-yl)ureido) benzamide]
> 10	C[C@H]1c2ccc(NC(=O)Nc3ccc(F)cc3)cc2N(Cc2ccccc2)C(=O)N1C [Example 38, (S)-1-(1-benzyl-3,4-dimethyl-2-oxo-1,2,3,4-tetrahydro-quinazolin-7-yl)-3-(4-fluorophenyl)urea]
1 to 10	CN1Cc2ccc(NC(=O)Nc3ccc(F)cc3)cc2N(Cc2ccccc2)C1=O [Example 39, 1-(1-Benzyl-3-methyl-2-oxo-1,2,3,4-tetrahydroquinazolin-7-yl)-3-(4-fluorophenyl)urea]
1 to 10	CN1Cc2ccc(NC(=O)Nc3ccc4cc[nH]c4c3)cc2N(Cc2ccccc2)C1=O [Example 40]
1 to 10	O=C1CSc2ccc(OCCc3ccc(F)cc3)cc2N1Cc1c(F)cccc1Cl [Example 41, 4-(2-Chloro-6-fluorobenzyl)-6-(4-fluorophenethoxy)-2H-benzo[b][1,4]thiazin-3(4H)-one]
1 to 10	O=C1CSc2ccc(COCc3ccc(F)cc3)cc2N1Cc1c(F)cccc1Cl [Example 42]
1 to 10	O=C1CSc2ccc(-c3ncc(-c4ccccc4)[nH]3)cc2N1Cc1c(F)cccc1Cl [Example 43, 4-(2-Chloro-6-fluorobenzyl)-6-(t-phenyl-1H-imidazol-2-yl)-2H-benzo[b][1,4]thiazin-3(4H)-one]
1 to 10	O=C1CSc2ccc(-c3n[nH]c(-c4ccccc4)n3)cc2N1Cc1c(F)cccc1Cl [Example 44, 4-(2-Chloro-6-fluorobenzyl)-6-(5-phenyl-1H-1,2,4-triazol-3-yl)-2H-benzo[b][1,4]thiazin-3(4H)-one]
1 to 10	O=C1CSc2ccc(-c3nnc(Cc4ccccc4)[nH]3)cc2N1Cc1c(F)cccc1Cl [Example 45]
> 10	O=C1CSc2ccc(-c3nc(-c4ccccc4)co3)cc2N1Cc1c(F)cccc1Cl [Example 46, 4-(2-Chloro-6-fluorobenzyl)-6-(4-phenyloxazol-2-yl)-2H-benzo[b][1,4]thiazin-3(4H)-one]
1 to 10	O=C(Cc1ccc2cc[nH]c2c1)Nc1ccc2c(c1)N(Cc1ccccc1)C(=O)CS2 [Example 47, N-(4-Benzyl-3-oxo-3,4-dihydro-2H-benzo[b][1,4]thiazin-6-yl)-2-(1H-indol-6-yl)acetamide]
> 10	O=C(Cc1ccco1)Nc1ccc2c(c1)N(Cc1ccccc1)C(=O)CS2 [Example 48, N-(4-benzyl-3-oxo-3,4-dihydro-2H-benzo[b][1,4]thiazin-6-yl)-2-(furan-2-yl)acetamide]
> 10	O=C(c1ccccc1)N1CCSc2ccc(S(=O)(=O)NCc3ccco3)cc21 [Example 49, 4-benzoyl-N-(furan-2-ylmethyl)-3,4-dihydro-2H-benzo[b][1,4]thiazine-6-sulfonamide]
≤ 1	O=C(Nc1ccc2c(c1)N(Cc1ccccc1)CCS2)Nc1ccc2cc[nH]c2c1 [Example 50, 1-(4-Benzyl-3,4-dihydro-2H-benzo[b][1,4]thiazin-6-yl)-3-(1H-indol-6-yl)urea]
1 to 10	O=C(Nc1ccc2c(c1)NCCO2)Nc1ccc2c(c1)N(Cc1ccccc1)C(=O)CS2 [Example 51, 1-(4-benzyl-3-oxo-3,4-dihydro-2H-benzo[b][1, 4]thiazin-6-yl)-3-(3,4-dihydro-2H-benzo[b][1, 4]oxazin-6-yl)urea]
1 to 10	O=C(Nc1ccc(F)cc1)Nc1ccc2c(c1)SCC(=O)N2Cc1ccccc1 [Example 52, 1-(4-benzyl-3-oxo-3,4-dihydro-2H-benzo[b][1, 4]thiazin-7-yl)-3-(4-fluorophenyl) urea]
